pIC50: −log10 of the molar value. Read-outs that look alike come from different tables or passages of the source.
Target: T1, sodium-proton exchanger of subtype 3 (NHE3) (Homo sapiens, UniProt P48764)
T1 construct: expressed in transfected cells
T1 sequence (P48764 26-834): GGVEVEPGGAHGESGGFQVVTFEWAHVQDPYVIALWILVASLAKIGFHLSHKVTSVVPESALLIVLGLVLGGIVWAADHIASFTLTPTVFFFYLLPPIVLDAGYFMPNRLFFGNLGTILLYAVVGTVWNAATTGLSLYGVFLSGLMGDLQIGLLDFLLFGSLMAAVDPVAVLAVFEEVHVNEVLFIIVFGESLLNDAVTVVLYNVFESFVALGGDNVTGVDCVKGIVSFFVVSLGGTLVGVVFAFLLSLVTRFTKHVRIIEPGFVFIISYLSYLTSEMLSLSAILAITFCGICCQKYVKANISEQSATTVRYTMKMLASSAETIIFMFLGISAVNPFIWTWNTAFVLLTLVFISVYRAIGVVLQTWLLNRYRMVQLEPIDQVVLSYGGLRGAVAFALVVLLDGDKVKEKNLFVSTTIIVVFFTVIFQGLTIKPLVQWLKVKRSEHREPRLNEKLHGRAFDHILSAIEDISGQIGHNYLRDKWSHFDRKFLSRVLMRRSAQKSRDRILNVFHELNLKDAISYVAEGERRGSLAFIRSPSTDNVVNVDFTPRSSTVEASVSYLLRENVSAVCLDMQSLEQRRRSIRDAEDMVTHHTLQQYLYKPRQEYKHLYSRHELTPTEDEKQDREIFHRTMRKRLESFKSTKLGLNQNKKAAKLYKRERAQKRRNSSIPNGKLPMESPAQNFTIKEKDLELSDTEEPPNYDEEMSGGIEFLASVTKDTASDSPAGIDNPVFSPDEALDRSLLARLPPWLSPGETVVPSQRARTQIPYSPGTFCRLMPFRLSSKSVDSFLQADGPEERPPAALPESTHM
Assay: Recovery of intracellular pH (pHi) after acidification in LAP1 cells stably expressing NHE3 (BCECF fluorescence, FLIPR)
Format: cell-based
Conditions: LAP1 cells stably expressing NHE3, pH recovery after acidification, range 1 is % inhibition at 10 μM

[1] = read-out: Activity range (inhibitory effect on NHE3)

Description: In this assay, the recovery of the intracellular pH (pHi) of LAP1 cells which stably express the sodium-proton exchanger of subtype 3 (NHE3) after acidification was determined. The recovery occurs even under bicarbonate-free conditions with functional NHE3. To this end, the pHi was determined using the pH-sensitive fluorescent dye BCECF (Molecular Probes, Eugene, Oreg., USA, employing the precursors BCECF-AM). The cells were initially incubated with BCECF (5 μM BCECF-AM) in NH4Cl buffer (NH4Cl buffer: 115 mM cholineCl, 20 mM NH4Cl, 5 mM KCl, 1 mM CaCl2, 1 mM MgCl2, 20 mM Hepes, 5 mM glucose, a pH of 7.4 was adjusted with 1 M KOH). The intracellular acidification was induced by washing the cells incubated in NH4Cl buffer with NH4Cl-free buffer (133.8 mM choline chloride, 4.7 mM KCl, 1.25 mM CaCl2, 1.25 mM MgCl2, 0.97 mM K2HPO4, 0.23 mM KH2PO4, 5 mM Hepes, 5 mM glucose, a pH of 7.4 was adjusted with 1 M KOH). After the washing step, 90 μl of the NH4Cl-free buffer were left on the cells. The pH recovery was started by adding 90 μl of Na^+-containing buffer (133.8 mM NaCl, 4.7 mM KCl, 1.25 mM CaCl2, 1.25 mM MgCl2, 0.97 mM Na2HPO4, 0.23 mM NaH2PO4, 10 mM Hepes, 5 mM glucose, a pH of 7.4 was adjusted with 1 M NaOH) in a measuring instrument (FLIPR, “Fluorometric Imaging Plate Reader”, Molecular Devices, Sunnyvale, Calif., USA). The BCECF fluorescence was determined with an excitation wavelength of 498 nm and the FLIPR emission filter 1 (bandpass from 510 to 570 nm). The subsequent changes in fluorescence as a measure of pH recovery were recorded for two minutes. To calculate the NHE3-inhibitory power of the tested substances, the cells were initially investigated in buffers with which complete or absolutely no pH recovery took place. For complete pH recovery (100%), the cells were incubated in Na^+-containing buffer (see above), and to determine the 0% value were incubated in Na^+-free buffer (see above). The substances to be tested were made up in Na^+-containing buffer. The recovery of the intracellular pH at each tested concentration of a substance was expressed as percent of the maximum recovery.
The IC50 of the respective substance for NHE3 was calculated from the percentages of pH recovery using the program XLFit (idbs, Surrey, UK).

| Structure (SMILES) | pIC50 [1] | other results |
| --- | --- | --- |
| Clc1cc(Cl)c2c(c1)[C@H](Oc1ccc(-n3cncn3)cc1)[C@@H](N1C[C@H]3CC[C@@H](C1)N3)C2 [Example 2, 3-[trans-(1S,2S)-4,6-dichloro-1-(4-[1,2,4]triazol-1-ylphenoxy)indan-2-yl]-3,8-diazabicyclo[3.2.1]octane] | – | pIC50 (Activity range (inhibitory effect on NHE3)): 5.00 to 6.00 |
| Cc1c(O[C@H]2c3ccccc3C[C@@H]2N2CCCC2)ccc(-n2c(C)nnc2C)c1C (racemic) [Example 488, 4-[2,3-dimethyl-4-(rac-trans-(1,2)-2-pyrrolidin-1-ylindan-1-yloxy)phenyl]-3,5-dimethyl-4H-[1,2,4]triazole] | > 6.00 | – |
| Cc1nnc(C)n1-c1ccc(O[C@H]2c3cc(Cl)cc(Cl)c3C[C@@H]2N2CC[C@@H](C#N)C2)cc1 [Example 134, (R)-1-{trans-(1S,2S)-4,6-dichloro-1-[4-(3,5-dimethyl-[1,2,4]triazol-4-yl)phenoxy]indan-2-yl}pyrrolidine-3-carbonitrile] | > 6.00 | – |
| O=C1CCC(=O)N1c1cccc(O[C@H]2c3cc(Cl)cc(Cl)c3C[C@@H]2N2CC[C@@H](O)C2)c1 [Example 316, 1-{3-[(1S,2S)-4,6-dichloro-2-((R)-3-hydroxypyrrolidin-1-yl)indan-1-yloxy]phenyl}pyrrolidine-2,5-dione] | 5.00 to 6.00 | – |
| O=C1OCc2cc(O[C@H]3c4ccccc4C[C@@H]3N3CCCC3)ccc21 (racemic) [Example 571, 5-(rac-trans-(1,2)-2-pyrrolidin-1-ylindan-1-yloxy)-3H-isobenzofuran-1-one] | 5.00 to 6.00 | – |
| Cc1nnc(C)n1-c1ccc(O[C@H]2c3cc(Cl)cc(Cl)c3C[C@@H]2N(C)CCN(C)C)c(F)c1 [Example 726, N-{trans-(1S,2S)-4,6-Dichloro-1-[4-(3,5-dimethyl-[1,2,4]triazol-4-yl)-2-fluoro-phenoxy]-indan-2-yl}-N,N′,N′-trimethyl-ethane-1,2-diamine] | > 6.00 | – |
| COc1cccc(F)c1O[C@@H]1c2ccccc2C[C@H]1N1C[C@H]2CNC[C@H]2C1 (racemic) [Example 5, 2-[rac-trans-(1,2)-1-(2-fluoro-6-methoxyphenoxy)indan-2-yl]octahydropyrrolo[3,4-c]pyrrole] | 5.00 to 6.00 | – |
| NS(=O)(=O)c1ccc(O[C@H]2c3ccccc3C[C@@H]2N2CCCCC2)cc1 (racemic) [Example 465, 4-(rac-trans-(1,2)-2-piperidin-1-ylindan-1-yloxy)benzenesulfonamide] | > 6.00 | – |
| Cc1nnc(C)n1-c1ccc(O[C@@H]2c3ccccc3C[C@@]2(C)N2CCCC2)c(F)c1 (racemic) [Example 494, 4-[3-fluoro-4-(-2-methyl-2-pyrrolidin-1-ylindan-1-yloxy)phenyl]-3,5-dimethyl-4H-[1,2,4]triazole] | 5.00 to 6.00 | – |
| N[C@H]1CCCN([C@@H]2Cc3ccccc3[C@H]2Oc2ccc(S(N)(=O)=O)c(Cl)c2Cl)C1 (racemic) [Example 536, 4-[rac-trans-(1,2)-2-((S)-3-aminopiperidin-1-yl)indan-1-yloxy]-2,3-dichlorobenzenesulfonamide] | 5.00 to 6.00 | – |
| CC(=O)Nc1cccc(O[C@@H]2c3ccccc3C[C@H]2N2C[C@H]3CNC[C@H]3C2)c1 (racemic) [Example 674, N-{3-[rac-trans-(1,2)-2-(hexahydropyrrolo[3,4-c]pyrrol-2-yl)indan-1-yloxy]phenyl}acetamide] | 5.00 to 6.00 | – |
| Cn1ccn(-c2cc(O[C@H]3c4cc(Cl)cc(Cl)c4C[C@@H]3N3CC[C@@H](O)C3)ccc2F)c1=O [Example 745, 1-{5-[trans-(1S,2S)-4,6-Dichloro-2-((R)-3-hydroxy-pyrrolidin-1-yl)-indan-1-yloxy]-2-fluoro-phenyl}-3-methyl-1,3-dihydro-imidazol-2-one] | – | inhibition at 10 µM [1]: 20 to 50% |
| Clc1cnccc1O[C@H]1c2ccccc2C[C@@H]1CN1CCCC1 (racemic) [Example 443, 3-chloro-4-(2-pyrrolidin-1-ylmethylindan-1-yloxy)pyridine] | – | inhibition at 10 µM [1]: 20 to 50% |
| CN(c1ccc(F)c(O[C@H]2c3cc(Cl)cc(F)c3C[C@@H]2N2CC[C@@H](O)C2)c1)S(C)(=O)=O [Example 673, N-{3-[(1S,2S)-6-chloro-4-fluoro-2-((R)-3-hydroxypyrrolidin-1-yl)indan-1-yloxy]-4-fluorophenyl}-N-methyl-methanesulfonamide] | 5.00 to 6.00 | – |
| N#Cc1ccc2cccc(O[C@H]3c4ccccc4CC[C@@H]3N3CCC[C@H](N)C3)c2n1 (racemic) [Example 596, 8-[rac-trans-(1,2)-2-((S)-3-aminopiperidin-1-yl)-1,2,3,4-tetrahydronaphthalen-1-yloxy]quinoline-2-carbonitrile] | 5.00 to 6.00 | – |
| O=S(=O)(NCC(F)(F)F)c1ccc(O[C@@H]2c3ccccc3C[C@H]2N2CCCC2)cc1 (racemic) [Example 469, 4-(rac-trans-(1,2)-2-pyrrolidin-1-ylindan-1-yloxy)-N-(2,2,2-trifluoroethyl)benzenesulfonamide] | 5.00 to 6.00 | – |
| N[C@H]1CCCN([C@H]2CCc3ccccc3[C@@H]2Oc2cc(F)cc(Cl)c2)C1 (racemic) [Example 162, (S)-1-[rac-trans-(1,2)-1-(3-chloro-5-fluorophenoxy)-1,2,3,4-tetrahydronaphthalen-2-yl]piperidin-3-ylamine] | – | inhibition at 10 µM [1]: 20 to 50% |
| Cc1nnc(C)n1-c1ccc(O[C@H]2c3ccccc3C[C@@H]2N2CCCC2)cc1 (racemic) [Example 405, 3,5-dimethyl-4-[4-(rac-trans-(1,2)-2-pyrrolidin-1-ylindan-1-yloxy)phenyl]-4H-[1,2,4]triazole] | > 6.00 | – |
| O=S(=O)(NCCC(F)(F)F)c1ccc(O[C@H]2c3ccccc3C[C@@H]2N2CCCC2)cc1 (racemic) [Example 470, 4-(rac-trans-(1,2)-2-pyrrolidin-1-ylindan-1-yloxy)-N-(3,3,3-trifluoropropyl)benzenesulfonamide] | 5.00 to 6.00 | – |
| COc1cc(C#N)cc(Cl)c1O[C@H]1c2ccccc2CC[C@@H]1N1CCC[C@@H](N)C1 (racemic) [Example 512, 4-[rac-trans-(1,2)-2-((R)-3-aminopiperidin-1-yl)-1,2,3,4-tetrahydronaphthalen-1-yloxy]-3-chloro-5-methoxy-benzonitrile] | – | inhibition at 10 µM [1]: 20 to 50% |
| NC(=O)c1cc(Cl)ccc1O[C@H]1c2cc(Cl)cc(Cl)c2C[C@@H]1N1CCC1 [Example 353, 2-((1S,2S)-2-azetidin-1-yl-4,6-dichloroindan-1-yloxy)-5-chlorobenzamide] | – | inhibition at 10 µM [1]: 20 to 50% |
| c1ccc2c(c1)CC[C@H](N1CCOCC1)[C@H]2Oc1ccc2ccncc2c1 (racemic) [Example 588, 7-(rac-trans-(1,2)-2-morpholin-4-yl-1,2,3,4-tetrahydronaphthalen-1-yloxy)isoquinoline] | – | inhibition at 10 µM [1]: 20 to 50% |
| N[C@H]1CCCN([C@@H]2Cc3ccccc3[C@H]2Oc2cccc3ncccc23)C1 (racemic) [Example 194, (S)-1-[rac-trans-(1,2)-1-(quinolin-5-yloxy)indan-2-yl]piperidin-3-ylamine] | 5.00 to 6.00 | – |
| Cc1nnc(C)n1-c1ccc(O[C@H]2c3c(Cl)sc(Cl)c3CC[C@@H]2N2CCCC2)c(F)c1 (racemic) [Example 495, 4-[4-((4S,5S)-1,3-dichloro-5-pyrrolidin-1-yl-4,5,6,7-tetrahydrobenzo[c]thiophen-4-yloxy)-3-fluorophenyl]-3,5-dimethyl-4H-[1,2,4]triazole] | 5.00 to 6.00 | – |
| Cc1nnc(C)n1-c1ccc(O[C@H]2c3cc(Cl)ccc3C[C@@H]2N2CCS(=O)(=O)CC2)c(Cl)c1 [Example 567, 4-{trans-(1S,2S)-6-chloro-1-[2-chloro-4-(3,5-dimethyl-[1,2,4]triazol-4-yl)phenoxy]indan-2-yl}thiomorpholine 1,1-dioxide] | 5.00 to 6.00 | – |
| Clc1ccc2cccc(O[C@H]3c4ccccc4CC[C@@H]3N3CCOCC3)c2n1 (racemic) [Example 395, 2-chloro-8-(rac-trans-(1,2)-2-morpholin-4-yl-1,2,3,4-tetrahydronaphthalen-1-yloxy)quinoline] | – | inhibition at 10 µM [1]: 20 to 50% |
| NS(=O)(=O)c1ccc(O[C@H]2c3cc(Cl)cc(Cl)c3C[C@@H]2N2CC[C@@H](O)C2)cc1 [Example 743, 4-[trans-(1S,2S)-4,6-Dichloro-2-((R)-3-hydroxy-pyrrolidin-1-yl)-indan-1-yloxy]-benzenesulfonamide] | > 6.00 | – |
| Cc1nnc(C)n1-c1ccc(O[C@H]2c3cc(Cl)ccc3C[C@@H]2N2CC[C@@H](O)C2)cc1 [Example 145, (R)-1-{trans-(1S,2S)-6-chloro-1-[4-(3,5-dimethyl-[1,2,4]triazol-4-yl)phenoxy]indan-2-yl}pyrrolidin-3-ol] | > 6.00 | – |
| CC(=O)Nc1cccc(O[C@H]2c3ccccc3C[C@@H]2N2CCSCC2)c1 (racemic) [Example 643, N-[3-(rac-trans-(1,2)-2-thiomorpholin-4-ylindan-1-yloxy)phenyl]acetamide] | – | inhibition at 10 µM [1]: 20 to 50% |
